Patent publication US10280198B2, “Therapeutic agents for reducing parathyroid hormone levels” (KAI PHARMACEUTICALS, INC., priority 2009, dated 2019)
Where two headings read alike, the source gives them in different places.

Legend:
[1] = biological target: T1, human calcium-sensing receptor (CaSR) (Homo sapiens, UniProt P41180); assay: In vitro cell assay in HEK-293 expressing the human calcium-sensing receptor (IP1 production); assay type: cell-based
T1 construct: expressed in transfected cells; host or cells: HEK 293T cells, transiently transfected (lipofectamine 2000); in some cases HEK293 cells stably transfected
T1 sequence (P41180 20-1078): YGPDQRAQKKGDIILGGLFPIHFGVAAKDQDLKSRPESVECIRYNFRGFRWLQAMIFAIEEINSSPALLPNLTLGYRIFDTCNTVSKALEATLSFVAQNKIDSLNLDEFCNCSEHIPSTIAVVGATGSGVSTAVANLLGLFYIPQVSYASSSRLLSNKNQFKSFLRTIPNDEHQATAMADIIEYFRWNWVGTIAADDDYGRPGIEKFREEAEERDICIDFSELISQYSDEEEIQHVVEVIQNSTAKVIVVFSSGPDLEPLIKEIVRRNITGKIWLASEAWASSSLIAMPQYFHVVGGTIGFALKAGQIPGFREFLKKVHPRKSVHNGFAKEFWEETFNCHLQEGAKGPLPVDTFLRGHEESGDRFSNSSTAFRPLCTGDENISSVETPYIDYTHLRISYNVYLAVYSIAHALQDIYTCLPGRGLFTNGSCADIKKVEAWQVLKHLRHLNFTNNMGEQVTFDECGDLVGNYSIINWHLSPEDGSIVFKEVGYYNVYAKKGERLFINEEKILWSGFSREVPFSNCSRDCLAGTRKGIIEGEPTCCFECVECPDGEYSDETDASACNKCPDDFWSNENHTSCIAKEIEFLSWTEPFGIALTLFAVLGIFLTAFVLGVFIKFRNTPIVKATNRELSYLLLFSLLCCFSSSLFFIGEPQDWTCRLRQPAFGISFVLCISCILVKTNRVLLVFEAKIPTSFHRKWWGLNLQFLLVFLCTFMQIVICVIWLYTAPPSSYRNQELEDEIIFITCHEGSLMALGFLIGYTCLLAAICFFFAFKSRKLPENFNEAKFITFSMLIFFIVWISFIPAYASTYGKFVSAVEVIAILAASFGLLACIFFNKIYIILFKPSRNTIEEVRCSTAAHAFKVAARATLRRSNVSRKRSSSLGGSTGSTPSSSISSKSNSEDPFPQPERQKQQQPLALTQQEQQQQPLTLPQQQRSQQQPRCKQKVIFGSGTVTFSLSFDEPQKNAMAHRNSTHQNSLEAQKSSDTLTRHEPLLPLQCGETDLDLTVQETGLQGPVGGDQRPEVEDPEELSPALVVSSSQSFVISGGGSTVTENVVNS
Outline: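 HEK293 cells transfected with human CaSR exposed to peptides at eight concentrations in duplicate (top 1 mM or 300 μM, ½-log dilutions) at 37 °C for 1.5 h.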

[2] = system: rat peritoneal mast cells; assay: In vitro histamine induction in rat peritoneal mast cells; assay type: cell-based
Outline: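 Mast cells from peritoneal lavage of Sprague Dawley rats were incubated with compound at 10 μM for 15 min at 37 °C in HBSS + 25 mM HEPES pH 7.4. Supernatant histamine measured by EIA; response expressed as fold change versus pre-incubation levels.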

[3] = Table 5, IP1 production in HEK293 cells expressing human CaSR, eight concentrations in duplicate, read-out: EC50 in CaSR in vitro assay

EC50 ([1]; Table 1, IP1 in HEK293 cells expressing human CaSR, read-out: In vitro EC50)	EC50 [1, 3]	Histamine in vitro Fold change of non-treated at 10 uM [2]	Structure (SMILES)
500 nM	500 nM	11.5 fold	CC(=O)N[C@H](CS)C(=O)N[C@H](CCCNC(=N)N)C(=O)N[C@H](CCCNC(=N)N)C(=O)N[C@H](CCCNC(=N)N)C(=O)N[C@H](CCCNC(=N)N)C(=O)N[C@H](CCCNC(=N)N)C(=O)N[C@H](CCCNC(=N)N)C(N)=O [SEQ ID NO: 6, Ac-crrrrrr-NH2]
–	1600 nM	1.4 fold	CC(=O)N[C@H](CS)C(=O)N[C@H](C)C(=O)N[C@H](CCCNC(=N)N)C(=O)N[C@H](CCCNC(=N)N)C(=O)N[C@H](CCCNC(=N)N)C(=O)N[C@H](C)C(=O)N[C@H](CCCNC(=N)N)C(N)=O [SEQ ID NO: 26, Ac-carrrar-NH2]
